Reference: paper PMC11672292, “Discovery of Balasubramide Derivative with Tissue‐Specific Anti‐Inflammatory Activity Against Acute Lung Injury by Targeting VDAC1” (Advanced Science, 2024)
Like-named read-outs stand apart in the source and are kept apart here.

How the values were obtained:
mice = experiment: Subacute toxicity, 28 consecutive days of administration; assay type: in vivo
[1] = Pharmacokinetics and tissue distribution after single intravenous administration; assay type: in vivo, mouse; conditions: mice; for Vd: read-out: VdSS; for Kp: read-out: Tissues/plasma ratio
Method: Pharmacokinetic studies were performed as previously described.^[ [63] ^] Briefly, ICR mice were fasted without water for 16 h before drug administration and allowed access to food and water freely after administration. After given a single intravenous administration of (+)3C‐20 (10 mg kg^−1), mice were anesthetized with isoflurane, and blood samples were collected through jugular vein at different time points (0, 0.083, 0.25, 0.5, 1, 2, 4, 6, 8, 24 h), as well as at different time points (0.5, 2, 6, 24 h) mice were euthanized and brain, heart, liver, spleen, lung, and kidney were collected. Blood samples were collected in tubes containing sodium heparin and centrifuged at 5000 rpm at 4 °C for 10 min to prepare plasma, tissues were cleaned in prechilled saline and homogenized to be tested, and all samples were stored at […]. LC‐MS/MS was performed to determine the concentrations of (+)3C‐20 in the plasma and tissues of the mice and to calculate the related pharmacokinetic parameters, which were then used to investigate the pharmacokinetic characteristics and tissue distribution of (+)3C‐20 in mice.

[2] = molecular target: T1, VDAC1 oligomerization in LPS-primed BMDMs (Mus musculus, UniProt Q60932); experiment: VDAC1 cross-linking (oligomerization) assay; assay type: cell-based; conditions: DSS cross-linking, immunoblotting
T1 construct: endogenous in cells; host or cells: primary bone marrow-derived macrophages (BMDMs) from C57BL/6J mice
T1 sequence (Q60932 14-296): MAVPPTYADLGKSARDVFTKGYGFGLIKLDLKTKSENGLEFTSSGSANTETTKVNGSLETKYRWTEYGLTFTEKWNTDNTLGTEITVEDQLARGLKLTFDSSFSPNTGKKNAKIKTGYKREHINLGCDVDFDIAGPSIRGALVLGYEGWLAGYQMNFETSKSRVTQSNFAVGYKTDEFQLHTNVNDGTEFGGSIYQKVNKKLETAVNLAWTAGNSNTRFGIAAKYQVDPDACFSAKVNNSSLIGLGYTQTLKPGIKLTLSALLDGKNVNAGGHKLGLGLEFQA
Method: The cells (BMDM, iBMDM, RAW264.7, and HEK293T) treated with (+)3C‐20 were washed twice by PBS and lysed in RIPA. The lysate was incubated for 30 min at 30 °C with the cross‐linking reagent DSS (1 mM), mixed with 4 × laemmli buffer with DTT, subjected to SDS‐PAGE and immunoblotting analyzed with anti‐VDAC1 antibody.

PBMCs from ALI patients = experiment: Cytosolic mtDNA release in LPS-stimulated PBMCs from ALI patients; assay type: cell-based, human; conditions: 10 µM
Method: PBMCs isolation and stimulation were performed as previously described.^[ [40], [66] ^] Anticoagulated whole blood diluted equally with PBS was added to a 15 mL sterile centrifuge tube containing lymphocyte separation solution (#C0025, Beyotime, China), and centrifuged for 10 min at 2500 rpm. The layer of PBMCs at the plasma‐density gradient medium interface was transferred to a new sterile tube, dispersed with 10 mL DMEM, and centrifuged for 5 min at 800 rpm. The mononuclear cells at the bottom of the tube were resuspended in DMEM with 10% FBS at 5 × 10^5 cells/well in 24‐well plates. After discarding the supernatant, the PBMCs were incubated with DMSO or 10 µM (+)3C‐20 for 3 h in DMEM, stimulated with 100 ng mL^−1 LPS for another 3 h, and lysed with TRIzol reagent for total RNA extraction and following indicated experiments.

in vivo = conditions: mouse, iv
Excerpt: To test the safety of (+)3C‐20 in mice, as previously reported,^[ [31] ^] we estimated the acute toxicity of (+)3C‐20 in mice using a sequential method.

[3] = ICR, mouse, brain, iv, single i.v. 10 mg/kg, read-out: Concentration of (+)3C-20, Brain
[4] = ICR, mouse, heart, iv, single i.v. 10 mg/kg, read-out: Concentration of (+)3C-20, Heart
[5] = ICR, mouse, iv, single i.v. 10 mg/kg, Blood
[6] = ICR, mouse, iv, single i.v. 10 mg/kg, Brain
[7] = ICR, mouse, iv, single i.v. 10 mg/kg, Heart
[8] = ICR, mouse, iv, single i.v. 10 mg/kg, Kidney
[9] = ICR, mouse, iv, single i.v. 10 mg/kg, Liver
[10] = ICR, mouse, iv, single i.v. 10 mg/kg, Lung
[11] = ICR, mouse, iv, single i.v. 10 mg/kg, Plasma
[12] = ICR, mouse, iv, single i.v. 10 mg/kg, Spleen
[13] = ICR, mouse, kidney, iv, single i.v. 10 mg/kg, read-out: Concentration of (+)3C-20, Kidney
[14] = ICR, mouse, liver, iv, single i.v. 10 mg/kg, read-out: Concentration of (+)3C-20, Liver
[15] = ICR, mouse, lung, iv, single i.v. 10 mg/kg, read-out: Concentration of (+)3C-20, Lung
[16] = ICR, mouse, spleen, iv, single i.v. 10 mg/kg, read-out: Concentration of (+)3C-20, Spleen

O=C(CCc1ccc(C(F)(F)F)cc1)O[C@@H]1C(=O)NCCc2c([nH]c3ccccc23)[C@H]1c1ccc(C(F)(F)F)cc1 [(+)3C-20]
effects on the liver (AST, ALT) (mice; 50 mg kg^−1, 28 days): no harmful effects
changes in body weight or relative organ weight (mice; 28 consecutive days of administration, 50 mg/kg): did not observe any harmful changes
concentration at 0.5 h [1, 3]: 518 ± 66 ng/g
concentration at 2 h [1, 3]: 317 ± 86.1 ng/g
concentration at 6 h [1, 3]: 113 ± 11.8 ng/g
concentration at 0.5 h [1, 4]: 4510 ± 630 ng/g
concentration at 2 h [1, 4]: 1270 ± 335 ng/g
concentration at 6 h [1, 4]: 123 ± 12.7 ng/g
half-life ([1]; ICR, mouse, iv, i.v. 10 mg kg^−1, serum and plasma, read-out: average half-life (converted)): 5.3 ± 0.3 h
AUC(0-inf) [1, 5]: 3600 ng·h/mL
AUC(0-t) [1, 5]: 3470 ng·h/mL
C0 [1, 5]: 3950 ng/mL
Cmax [1, 5]: 2340 ng/mL
clearance [1, 5]: 46.4 mL/min/kg
k el [1, 5]: 3.36e-05 s⁻¹
Vd [1, 5]: 12.3 L/kg
half-life ([1]; ICR, mouse, iv, single i.v. 10 mg/kg, Blood, read-out: t1/2 (converted)): 5.72 h
AUC(0-inf) [1, 6]: 3160 ng·h/mL
AUC(0-t) [1, 6]: 2980 ng·h/mL
C0 [1, 6]: 610 ng/mL
Cmax [1, 6]: 518 ng/mL
k el [1, 6]: 3.44e-05 s⁻¹
Kp [1, 6]: 0.699
half-life ([1]; ICR, mouse, iv, single i.v. 10 mg/kg, Brain, read-out: t1/2 (converted)): 5.57 h
AUC(0-inf) [1, 7]: 10200 ng·h/mL
AUC(0-t) [1, 7]: 9980 ng·h/mL
C0 [1, 7]: 6890 ng/mL
Cmax [1, 7]: 4510 ng/mL
k el [1, 7]: 0.000178 s⁻¹
Kp [1, 7]: 2.34
half-life ([1]; ICR, mouse, iv, single i.v. 10 mg/kg, Heart, read-out: t1/2 (converted)): 1.08 h
AUC(0-inf) [1, 8]: 3980 ng·h/mL
AUC(0-t) [1, 8]: 3780 ng·h/mL
C0 [1, 8]: 1960 ng/mL
Cmax [1, 8]: 1450 ng/mL
k el [1, 8]: 0.000134 s⁻¹
Kp [1, 8]: 0.885
half-life ([1]; ICR, mouse, iv, single i.v. 10 mg/kg, Kidney, read-out: t1/2 (converted)): 1.44 h
AUC(0-inf) [1, 9]: 15500 ng·h/mL
AUC(0-t) [1, 9]: 14900 ng·h/mL
C0 [1, 9]: 6050 ng/mL
Cmax [1, 9]: 5010 ng/mL
k el [1, 9]: 0.000145 s⁻¹
Kp [1, 9]: 3.5
half-life ([1]; ICR, mouse, iv, single i.v. 10 mg/kg, Liver, read-out: t1/2 (converted)): 1.33 h
AUC(0-inf) [1, 10]: 22200 ng·h/mL
AUC(0-t) [1, 10]: 22100 ng·h/mL
C0 [1, 10]: 11700 ng/mL
Cmax [1, 10]: 7780 ng/mL
k el [1, 10]: 5.39e-05 s⁻¹
Kp [1, 10]: 5.17
half-life ([1]; ICR, mouse, iv, single i.v. 10 mg/kg, Lung, read-out: t1/2 (converted)): 3.58 h
AUC(0-inf) [1, 11]: 4770 ng·h/mL
AUC(0-t) [1, 11]: 4700 ng·h/mL
C0 [1, 11]: 6280 ng/mL
Cmax [1, 11]: 4010 ng/mL
clearance [1, 11]: 35.2 mL/min/kg
k el [1, 11]: 3.97e-05 s⁻¹
Vd [1, 11]: 6.1 L/kg
half-life ([1]; ICR, mouse, iv, single i.v. 10 mg/kg, Plasma, read-out: t1/2 (converted)): 4.88 h
AUC(0-inf) [1, 12]: 9840 ng·h/mL
AUC(0-t) [1, 12]: 9560 ng·h/mL
C0 [1, 12]: 6800 ng/mL
Cmax [1, 12]: 4370 ng/mL
k el [1, 12]: 0.000161 s⁻¹
Kp [1, 12]: 2.24
half-life ([1]; ICR, mouse, iv, single i.v. 10 mg/kg, Spleen, read-out: t1/2 (converted)): 1.2 h
concentration at 0.5 h [1, 13]: 5010 ± 516 ng/g
concentration at 2 h [1, 13]: 2840 ± 692 ng/g
concentration at 6 h [1, 13]: 299 ± 25.1 ng/g
concentration at 0.5 h [1, 14]: 4370 ± 1010 ng/g
concentration at 2 h [1, 14]: 1160 ± 434 ng/g
concentration at 6 h [1, 14]: 159 ± 51.7 ng/g
concentration at 0.5 h [1, 15]: 7780 ± 525 ng/g
concentration at 2 h [1, 15]: 2300 ± 281 ng/g
concentration at 6 h [1, 15]: 440 ± 50.4 ng/g
concentration at 24 h ([1]; ICR, mouse, lung, iv, single i.v. 10 mg/kg, 24 h, read-out: Concentration of (+)3C-20, Lung): 23.8 ± 9.4 ng/g
concentration at 0.5 h [1, 16]: 1450 ± 79.6 ng/g
concentration at 2 h [1, 16]: 595 ± 192 ng/g
concentration at 6 h [1, 16]: 98.7 ± 60 ng/g
lung tissue/plasma ratio in various organs ([1]; i.v. 10 mg kg^−1): highest
AUMC0-inf ([1]; single i.v. 10 mg/kg, Blood): 15950.5 h·h·ng·mL^-1
AUMC0-t ([1]; single i.v. 10 mg/kg, Blood): 11638.5 h·h·ng·mL^-1
MRTIV ([1]; single i.v. 10 mg/kg, Blood): 4.425 h
Tissues/plasma ratio ([1]; single i.v. 10 mg/kg, Blood): 0.734
AUMC0-inf ([1]; single i.v. 10 mg/kg, Brain): 19922 h·h·ng·mL^-1
AUMC0-t ([1]; single i.v. 10 mg/kg, Brain): 14234 h·h·ng·mL^-1
MRTIV ([1]; single i.v. 10 mg/kg, Brain): 6.3 h
AUMC0-inf ([1]; single i.v. 10 mg/kg, Heart): 12176 h·h·ng·mL^-1
AUMC0-t ([1]; single i.v. 10 mg/kg, Heart): 10724 h·h·ng·mL^-1
MRTIV ([1]; single i.v. 10 mg/kg, Heart): 1.2 h
AUMC0-inf ([1]; single i.v. 10 mg/kg, Kidney): 6846 h·h·ng·mL^-1
AUMC0-t ([1]; single i.v. 10 mg/kg, Kidney): 5185 h·h·ng·mL^-1
MRTIV ([1]; single i.v. 10 mg/kg, Kidney): 1.72 h
AUMC0-inf ([1]; single i.v. 10 mg/kg, Liver): 26259 h·h·ng·mL^-1
AUMC0-t ([1]; single i.v. 10 mg/kg, Liver): 21734 h·h·ng·mL^-1
MRTIV ([1]; single i.v. 10 mg/kg, Liver): 1.69 h
AUMC0-inf ([1]; single i.v. 10 mg/kg, Lung): 54321 h·h·ng·mL^-1
AUMC0-t ([1]; single i.v. 10 mg/kg, Lung): 50741 h·h·ng·mL^-1
MRTIV ([1]; single i.v. 10 mg/kg, Lung): 2.45 h
AUMC0-inf ([1]; single i.v. 10 mg/kg, Plasma): 13980 h·h·ng·mL^-1
AUMC0-t ([1]; single i.v. 10 mg/kg, Plasma): 11982 h·h·ng·mL^-1
MRTIV ([1]; single i.v. 10 mg/kg, Plasma): 2.91 h
AUMC0-inf ([1]; single i.v. 10 mg/kg, Spleen): 12590 h·h·ng·mL^-1
AUMC0-t ([1]; single i.v. 10 mg/kg, Spleen): 10456 h·h·ng·mL^-1
MRTIV ([1]; single i.v. 10 mg/kg, Spleen): 1.28 h
VDAC1 oligomerization [2]: inhibit VDAC1 oligomerization in a dose‐dependent manner
cytosolic mtDNA release (PBMCs from ALI patients): markedly reduced
LD50 (in vivo): 185 mg/kg
